In patent publication US8969312B2, “Low side effect pharmaceutical composition containing antituberculosis drugs” (priority 2011, dated 2015):

Experiments:
[1] = biological target: cytochrome P450 2E1 (CYP2E1) (Homo sapiens, UniProt P05181); test: CYP2E1 High Throughput Inhibitor Screening Kit, cDNA synthesized microsomal CYP2E1 (MFC to HFC); conditions: for Minimum Effective Dose: Table 3, minimum tested concentration (mg/L) × volume of human liver and intestine (3L)
Excerpt: CYP2E1 High Throughput Inhibitor Screening Kit (BD Bioscience, USA) was used to screen the cytochrome P450 (CYP2E1) inhibitors from 22 Chinese medicine guiding drugs and 10 excipients and microsomal cytochrome P450 (CYP2E1) was synthesized from cDNA (BD Bioscience, USA). The principle of the screening kit is to measure the percentage of CYP2E inhibition, after adding the test sample to substrate MFC (7-Methoxy-4-trifluoromethyl coumarin) and cytochrome P450 (CYP2E1), by measuring the synthesis of standard CYP2E1 metabolite (HFC, 7-Hydroxy-4-trifluoromethyl coumarin) and use control HFC as baseline.
a. 149 μl NADPH-Cofactor Mix and 1 μl 20 mM DDTC were added to the #1 well in a 96-well plate and mixed thoroughly,
b. Add 100 μl Cofactor/acetonitrile mix to #2 to #12 wells, and well #1 to #8 are positive control. Well #9 and 10 are control and well #11 and #12 are blank,
c. […] Preparation of Experimental Groups: a. […] Transfer 50 μl from well #1 and #2 and added to well #3 and mixed thoroughly (triplicate for each sample), 3. Initiation and Termination of the Reaction: a. The 96-well plate was incubated at 37° C. for […], b. 100 μl of Enzyme/Substrate Mix was added to every well and mixed thoroughly except the blank wells, c. The 96-well plate was incubated at 37° C. for 40 min, d. 75 μl Stop Solution was added to every well and mixed thoroughly, e. Immediately add 100 μl Enzyme/Substrate Mix to blank wells and mixed thoroughly, f. Measure with a Fluoroskan Ascent FL (Thermo Electron Corporation, Finland) with excitation at 405 nm and emission at 538 nm, 4. The fluorescence was transverse into CYP 2E1 metabolite standard (HFC) concentration (pmol) and the percentage (%) of CYP 2E1 inhibition was calculated using control as baseline by following equation: […]

[2] = biological target: human liver microsomal cytochrome P450 2E1 (CYP2E1) (Homo sapiens, UniProt P05181); test: Human liver microsomal CYP2E1, chlorzoxazone 6-hydroxylation;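 also: chlorzoxazone added as substrate, 6-hydroxychlorzoxazone formation quantified by LC/MS/MS after 30 min at 37 °C with NADP+ regenerating system, compared against solvent control without test sample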
human liver microsomal cytochrome P450 2E1 (CYP2E1), sequence (P05181 whole entry): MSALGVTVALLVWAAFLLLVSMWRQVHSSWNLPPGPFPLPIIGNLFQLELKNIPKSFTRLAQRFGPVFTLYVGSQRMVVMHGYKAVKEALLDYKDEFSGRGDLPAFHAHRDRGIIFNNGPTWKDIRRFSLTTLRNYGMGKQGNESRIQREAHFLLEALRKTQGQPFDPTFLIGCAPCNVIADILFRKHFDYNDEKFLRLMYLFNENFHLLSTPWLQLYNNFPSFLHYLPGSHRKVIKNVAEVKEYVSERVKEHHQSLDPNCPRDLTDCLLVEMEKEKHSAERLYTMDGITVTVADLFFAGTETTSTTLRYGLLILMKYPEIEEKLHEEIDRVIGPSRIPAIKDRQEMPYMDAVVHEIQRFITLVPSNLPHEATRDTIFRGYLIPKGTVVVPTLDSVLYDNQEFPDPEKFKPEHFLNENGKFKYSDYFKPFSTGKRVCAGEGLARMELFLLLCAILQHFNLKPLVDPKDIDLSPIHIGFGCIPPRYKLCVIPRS
Procedure: (§1) Microsomes prepared from human liver were used to extract cytochrome P450 2E1 (CYP2E1) and CYP2E1 inhibitors were screened from 39 Chinese medicine guiding drugs and 10 excipients. Chlorzoxazone hydroxylation is a reaction catalyzed primarily by CYP2E1 in liver. The extracted human liver microsomal cytochrome P450 2E1 (CYP2E1) was mixed with its substrate, Chlorzoxazone, and test sample was then added Inhibition of CYP2E1 activity was calculated by measuring CYP2E1 standard metabolite, 6-OH-CZX (6-Hydroxy-Chlorzoxazone), and compared with control 6-OH-CZX.
(§2) After incubation, 16 mM Chlorzoxazone and test samples were added to experimental groups; methanol:sterilized water at 1:1 ratio was added to control groups and DDTC was added to positive control groups,
(§3) Finally, cofactor 1 mM NADP^+, 10 mM G6P and 2 IU G6PD were added and reaction mixtures were transferred to pre-incubation 37° C. water bath for 1 mM and activity was measured after 30 min of reaction
(§4) At the end of reaction, 500 μl acetonitrile was added to stop the reaction followed by 5 g/mL 4-hydroxy-tobutamide after 1 mM incubation. The mixture was then centrifuged and 20 L of supernatant was diluted ten times with methanol/sterilized water and 5 L was used for LC/MS/MS analysis. […] The inhibition of CYP2E1 was then calculated by the following equation:

[3] = test system: amidase; test: Mouse liver microsomal amidase, isoniazid to isonicotinic acid; assay type: biochemical
Excerpt: Mouse liver microsomes were used as the source of amidase, and isoniazid was used as the amidase metabolism drugs. quantitative isoniazid was catalyzed into metabolites isonicotinic acid (INA) by amidase, and was used as the index for measurement of the amidase activity for establishment of the platform for screening in vitro amidase activity inhibitors. The HPLC system includes a Shimadzu the LC-LOAD pump, 1 Shimadzu system control and a Shimadzu autosampler (Shimadzu Scientific Instrument, Japan). A C18 column (particle size 5 μm, inner diameter of 50×4.6 mm, 25 cm) containing 70% methanol and 30% ammonium formate (50 mM, pH=2.5) of the mobile phase for HPLC separation, and the experimental steps are outlined as follows:
(2) An aliquot of 150 μL mouse liver microsomal solution was added to 100 μL isoniazid solution in 35 μL 67 mM potassium phosphate buffer solution ([…], pH=7) with a final concentration at 3 mM, and then mixed thoroughly with 15 μL amidase inhibitor (deionized water was added in the control group). (3) Incubation at 37° C. water bath for 30 minutes. (4) An aliquot of 300 μL acetonitrile (ACN) was added and mixed thoroughly, and incubated for 6 minutes. (5) An aliquot of 30 μL perchloric acid was then mixed and incubated for 6 minutes. (6) The mixture was centrifuged at 13000 g for 6 minutes. (7) After centrifugation, 100 μL of the supernatant was injected into HPLC. (8) Methanol ammonium formate (50 mM, pH=2.5)=70:30 (V/V) was selected as the mobile phase, and the flow rate was controlled at […] and detected at 270 nm UV. […] The amidase inhibition % was then calculated using the following formula: […]

[4] = test system: Male SD (Sprague-Dawley) rats; test: Rat study of INH combined with DSF and/or BNPP (AST, ALT, histology, 8-iso-PGF2α, GSP, GEC); assay type: in vivo
Procedure: The body weight of the rats was monitored throughout the experiment. Rats were anesthetized with sodium pentobarbital intraperitoneally (i.p.) at the dose of 50 mg/kg and Galactose was injected intravenously through a polyethylene catheter positioned in internal jugular vein. The catheter was positioned by cut-down technique and its end was embedded under the skin behind the neck. After the surgery, the rats were fasted overnight during the recovery period (about 16 hours) with unrestricted water access.
Animals were randomized into one of five groups, each involving three treatments. The first treatment involved either a BNPP injection of 25 mg/kg or a BNPP vehicle (VEH1) injection (saline). […] The second treatment involved injections of either 100 mg/kg DSF or DSF vehicle (VEH2, corn oil). DSF was dissolved in corn oil and i.p. injected at a volume of […]. The third treatment involved injections of INH (25 mg/kg) or INH vehicle (VEH3, saline). INH was dissolved in saline (0.9% NaCl), and i.p. injected at a volume of […]. The first treatment (BNPP or VEH1) was administered 30 minutes before the third treatment (INH or VEH3), and the second treatment (DSF or VEH2) was administered 15 minutes before the third treatment (INH or VEH3).
Galactose elimination capacity (GEC) test was performed 16 hours […] at the end of 21 days-treatment to measure the liver function.
After 21 days treatment, the rats were sacrificed with ether and blood samples collected in test tubes containing EDTA by dorsal aorta extract. The blood samples were centrifuged at 13,000 g for 15 min at 4° C. and plasma was aliquot into eppendorf tubes and stored at −80° C.
After the rats were sacrificed, the livers were subjected to histology analysis.
All isomers of PGF2α were dissolved or diluted in adequate amount of ethanol and after aliquot, stored at −70° C. As an internal standard, 10 ng of 8-iso-PGF2α-d4 was mixed with 0.5 ml of plasma in a glass tube and was then purified by a C18 Solid-Phase Extraction column (J. T. Baker, MA, USA). Sample eluants were evaporated under a stream of nitrogen and re-dissolved in 50 μl acetonitrile:water (15:85 v/v) solution followed by vortex for 30 seconds and 10 μl extract was further analyzed with a LC/MS/MS system.
Shimadzu system control and one Shimadzu autosampler (Shimadzu, Japan). HPLC purification of the extract by C18 column (mesh size 5-μm, diameter 50×2.1 mm) using 2 mM ammonium acetate/acetonitrile, ACN gradient as mobile phase (t=0 mM, 15% ACN; t=6 mM, 70% ACN; t=7 mM, 90% ACN; t=8 mM, 90% ACN; t=8.5 min, 15% ACN). […] Such HPLC system was connected to a triple stage quadrupole mass spectrometer (API3000, Applied Biosystem, Foster City, Calif., USA) and is equipped with a Turbo Ion Spray ionization source, and uses negative electrospray for ionization. Such spectrophotometer uses diffusion of standard solution of 200 ng/ml 8-iso-PGF2α or 8-iso-PGF2α-d4 to optimize the mode for multiple reaction monitoring (MRM).
All rats were subjected to GSP and GEC tests.

[5] = test system: 129/sv mice; test: Mouse study of INH/RIF with oral Kaempferol, Mannitol, Saccharin, Sucralose, Dicalcium phosphate or Crospovidone; assay type: in vivo; conditions: 3 weeks, in words
Excerpt: Animals were randomized into one of thirteen groups, each involving three treatments. […].
All mice were subjected to GSP test.

[6] = biological target: CYP2E1 (Homo sapiens, UniProt P05181); test: Human liver microsomal CYP2E1, chlorzoxazone 6-hydroxylation; conditions: human, human liver microsomes, pH 7.4, probe Chlorzoxazone;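 also: chlorzoxazone added as substrate, 6-hydroxychlorzoxazone formation quantified by LC/MS/MS after 30 min at 37 °C with NADP+ regenerating system, compared against solvent control without test sample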
CYP2E1, sequence (P05181 whole entry): as above
Procedure: as §1, §2, §3, §4

[7] = Table 6, minimum tested concentration (mg/L) × volume of human liver and intestine (3 L)

cytochrome P450 2E1 (CYP2E1), sequence (P05181 whole entry): as above

Structure (SMILES)	Minimum Effective Dose [1] [mg]	Minimum Effective Dose [2, 7] [mg]	Amidase inhibition ([3]; 1 uM) [%]	Amidase inhibition ([3]; 10 uM) [%]	Amidase inhibition ([3]; 100 uM) [%]	also measured
CCCCC[C@H](O)CC(=O)CCc1ccc(O)c(OC)c1 [6-Gingerol]	16	16	−8.2 ± 9.0	0.5 ± 0.7	22.6 ± 3.4	
Oc1cc(O)c2c(c1)O[C@H](c1ccc(O)c(O)c1)[C@@H](O)C2 [(+)-Catechin]	16		−2.1 ± 1.1	−11.8 ± 20.2	1.3 ± 6.3	Inhibition of CYP 2E1 ([1]; 16.5 μM): 41.53%; Inhibition of CYP 2E1 ([1]; 66 μM): 16.45%
O=C1c2c(O)cc(O)cc2O[C@H](c2ccc(O)c(O)c2)[C@H]1O [(+)-Taxifolin]	17		36.8 ± 11.5	32.2 ± 5.8	36.4 ± 3.4	
Oc1cc(O)c2c(c1)O[C@H](c1ccc(O)c(O)c1)[C@H](O)C2 [(−)-Epicatechin]	16		−25.8 ± 6.2	−4.8 ± 10.5	3.6 ± 4.3	Inhibition of CYP 2E1 ([1]; 16.5 μM): 18.27%; Inhibition of CYP 2E1 ([1]; 66 μM): 2.57%
COc1c(O)cc2oc(Oc3ccc(O)cc3)cc(=O)c2c1O [Capillarisin]	17	17	−4.1 ± 8.1	18.2 ± 3.7	45.7 ± 4.2	Inhibition of CYP 2E1 ([1]; 16.5 μM): 49.05%; Inhibition of CYP 2E1 ([1]; 66 μM): 76.12%; Inhibition of CYP 2E1 ([2]; 16.5 μM): 32.89 ± 2.46%; Inhibition of CYP 2E1 ([2]; 33 μM): 46.22 ± 2.65%; Inhibition of CYP 2E1 ([2]; 66 μM): 57.31 ± 1.31%
CCCCCCCCCCCC1=C(O)C(=O)C=C(O)C1=O [Embelin]	16					
COc1ccc([C@@H]2CC(=O)c3c(O)cc(O)cc3O2)cc1O [Hesperetin]	33	17	−40.5 ± 24.8	5.4 ± 2.5	19.0 ± 3.6	
NNC(=O)c1ccncc1 [INH, isoniazid]						GEC values ([4]; 21 days): 3.4±0.6 mg/min·kg; plasma ALT activities ([4]; i.p. once daily 21 days): 52±3 IU/L; plasma AST activities ([4]; i.p. once daily 21 days): 129±10 IU/L; plasma concentrations of 8-iso-PGF2α ([4]; i.p. once daily 21 days): 151 ± 26 pg/mL; liver histopathology ([4]; three weeks, H&E, EM, in words): showed hepatocellular damage
O=C1C[C@@H](c2ccc(O)cc2)Oc2cc(O)cc(O)c21 [Narigenin]	9	9				
CC(Cc1ccc(O)c(O)c1)C(C)Cc1ccc(O)c(O)c1 (centres unmarked) [Nordihydroguaiaretic acid]	17	17				
O=C(CCc1ccc(O)cc1)c1c(O)cc(O)cc1O [Phloretin]	15	15	16.5 ± 14.3	9.8 ± 5.4	29.9 ± 8.1	
O=C(CCc1ccc(O)cc1)c1c(O)cc(O)cc1O[C@@H]1O[C@H](CO)[C@@H](O)[C@H](O)[C@H]1O [Phloridzin]	24					
O=C(O)c1ccc(O)c(O)c1 [Protocatechuic acid]	8		11.5 ± 4.0	10.9 ± 2.0	15.7 ± 8.1	
O=c1c(-c2ccc(O)cc2)coc2c([C@@H]3O[C@H](CO)[C@@H](O)[C@H](O)[C@H]3O)c(O)ccc12 [Puerarin]	23		40.9 ± 3.6	33.0 ± 3.3	17.9 ± 7.2	
O=C1NS(=O)(=O)c2ccccc21 [Saccharin]						GSP values over treatment time [5]: remained constant; inhibition at 30 min, 16.5 µM [6]: 29.4 ± 2.7%; inhibition at 30 min, 33 µM [6]: 51.2 ± 0.9%; inhibition at 30 min, 66 µM [6]: 78.5 ± 2.1%; Minimum Effective Dose ([2]; Table 7): 10 mg
OC[C@H]1O[C@H](O[C@]2(CCl)O[C@H](CCl)[C@@H](O)[C@@H]2O)[C@H](O)[C@@H](O)[C@H]1Cl [Sucralose]						GSP values over treatment time [5]: remained constant; inhibition at 30 min, 16.5 µM [6]: 37.1 ± 2.8%; inhibition at 30 min, 33 µM [6]: 45.8 ± 4%; inhibition at 30 min, 66 µM [6]: 55.8 ± 2%; Minimum Effective Dose ([2]; Table 7): 22 mg
O=c1ccc2ccc(O)cc2o1 [Umbelliferone]	9		24.1 ± 11.6	−1.0 ± 13.2	33.5 ± 8.2	
O=C(O)c1cc(O)c(O)c(O)c1 [gallic acid]	9	9	12.0 ± 5.5	20.0 ± 5.1	−20.2 ± 26.5	
O=C(O)/C=C/c1ccccc1 [trans-Cinnamic acid]	8		−11.9 ± 2.3	−1.4 ± 0.6	12.6 ± 1.7	
O=c1cc(-c2ccccc2)oc2ccc3ccccc3c12 [β-naphthoflavone]	15					Inhibition of CYP 2E1 ([1]; 16.5 μM): 6.52%; Inhibition of CYP 2E1 ([1]; 66 μM): 15.40%
